Experimental data published in US20240246934A1, “QUINAZOLINE-BASED COMPOUND, COMPOSITION, AND APPLICATION OF QUINAZOLINE-BASED COMPOUND” (BEIJING SCITECH-MQ PHARMACEUTICALS LIMITED, priority 2021, published 2024).

Legend:
[1] = target: T1, HER2 kinase (Homo sapiens, UniProt P04626); assay: HER2 kinase assay (ULight/PT66 TR-FRET); assay type: biochemical
T1 construct: purchased Carna Biosciences 08-016
Outline: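 HER2 kinase preincubated 5 min with compounds (11-point 3-fold series, duplicates), then reacted 120 min at room temperature with ATP and ULight-poly GT peptide, each prepared at 4× working concentration (40 μM ATP, 400 nM substrate, 40 nM kinase). PT66 antibody added for 60 min, TR-FRET read; IC50 from inhibition curves.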

[2] = tested on: BT474 cells; assay: Inhibition of cell proliferation, CTG method, BT474; assay type: cell-based; settings: Homo sapiens, BT-474, 72 hours, read-out: hBT474 IC50
Description: (§1) The present application examined the in vitro anti-proliferative activity of the compounds of the present disclosure against in vitro cultured BT474, NCI-N87, Ba/F3-EGFR-VIII and Ba/F3 HER2 A775_G776insYVMA and Ba/F3 EGFR D770_N771insSVD cell lines by CTG method.
(§2) Reagents and consumables: RPMI1640 (ThermoFisher, Cat. No. C11875500BT); fetal bovine serum (Hyclone, Cat. No. SV30087.03); 0.25% trypsin-EDTA (ThermoFisher, Cat. No. 25200-072); penicillin-streptomycin (Hyclone, Cat. No. SV30010); DMSO (Amresco, Cat. No. 0231-500ML); CTG assay kit (Promega, Cat. No. G924C); 96-well plate (Corning, Cat. No. 3603); multifunctional plate reader (Perkin Elmer, Cat. No. Envision)
(§3) Cell lines: BT474 (from the cell bank of Chinese Academy of Sciences), NCI-N87 (from ATCC), Ba/F3-EGFR-VIII, Ba/F3 HER2 A775_G776insYVMA and Ba/F3 EGFR D770_N771insSVD (all from KYinno Biotechnology (Beijing) Co., Ltd.); all of the above cells were cultured with RPMI1640 medium containing 10% fetal bovine serum, 100 U/mL penicillin, and 100 μg/mL streptomycin in the culture process.
1. […]
(§4) 4. The cells were cultured for another 72 hours, and then cell viability was detected by CTG assay kit. Signal values were read with a multifunctional plate reader (Perkin Elmer). GraphPad Prism software was used to create a dose-response curve and IC50 was calculated.

[3] = target: Ba/F3 EGFR D770_N771insSVD cells (Homo sapiens, UniProt P00533, DUP768-770, cells depend on it); assay: Inhibition of cell proliferation, CTG method, Ba/F3 EGFR D770_N771insSVD; assay type: cell-based; settings: 72 hours, read-out: Ba/F3 EGFR D770_N771insSVD IC50
Description: as §1, §2, §3
1. The assay compound was dissolved with DMSO to form a stock solution and a gradient dilution was performed, followed by dilution with the corresponding medium to obtain a solution with 5-fold working concentration.
2. Cells in logarithmic growth phase were adjusted to specific cell densities by dilution with culture medium, and 80 μL of cell suspension was added to a 96-well plate, such that plating densities of cells of BT474, NCI-N87, Ba/F3-EGFR-VIII, Ba/F3 HER2 A775_G776insYVMA and Ba/F3 EGFR D770_N771insSVD were all 3000 cells/well. The cells of Ba/F3-EGFR-VIII, Ba/F3 HER2 A775_G776insYVMA and Ba/F3 EGFR D770_N771insSVD were used directly in the next step (treatment with compound), whereas the BT474 and NCI-N87 needed to be cultured overnight in a 37° C., 5% carbon dioxide gas incubator to adhere to the wall, and then treated with compounds.
3. 20 μL of compound solution was added to each well of the 96-well plate that had been inoculated with cells. The highest concentration of the assayed compound was 10 μM, 4-fold serial dilution, a total of 9 concentrations, and duplicate wells. A control group without compound was also set up.
as §4

[4] = tested on: Ba/F3 ERBB2 A775_G776insYVMA; assay: Efficacy in nude mouse tumor-bearing model of Ba/F3 ERBB2 A775_G776insYVMA; assay type: in vivo, BALB/c nude mice; settings: 30 mg/kg

T1 sequence (P04626 23-1255): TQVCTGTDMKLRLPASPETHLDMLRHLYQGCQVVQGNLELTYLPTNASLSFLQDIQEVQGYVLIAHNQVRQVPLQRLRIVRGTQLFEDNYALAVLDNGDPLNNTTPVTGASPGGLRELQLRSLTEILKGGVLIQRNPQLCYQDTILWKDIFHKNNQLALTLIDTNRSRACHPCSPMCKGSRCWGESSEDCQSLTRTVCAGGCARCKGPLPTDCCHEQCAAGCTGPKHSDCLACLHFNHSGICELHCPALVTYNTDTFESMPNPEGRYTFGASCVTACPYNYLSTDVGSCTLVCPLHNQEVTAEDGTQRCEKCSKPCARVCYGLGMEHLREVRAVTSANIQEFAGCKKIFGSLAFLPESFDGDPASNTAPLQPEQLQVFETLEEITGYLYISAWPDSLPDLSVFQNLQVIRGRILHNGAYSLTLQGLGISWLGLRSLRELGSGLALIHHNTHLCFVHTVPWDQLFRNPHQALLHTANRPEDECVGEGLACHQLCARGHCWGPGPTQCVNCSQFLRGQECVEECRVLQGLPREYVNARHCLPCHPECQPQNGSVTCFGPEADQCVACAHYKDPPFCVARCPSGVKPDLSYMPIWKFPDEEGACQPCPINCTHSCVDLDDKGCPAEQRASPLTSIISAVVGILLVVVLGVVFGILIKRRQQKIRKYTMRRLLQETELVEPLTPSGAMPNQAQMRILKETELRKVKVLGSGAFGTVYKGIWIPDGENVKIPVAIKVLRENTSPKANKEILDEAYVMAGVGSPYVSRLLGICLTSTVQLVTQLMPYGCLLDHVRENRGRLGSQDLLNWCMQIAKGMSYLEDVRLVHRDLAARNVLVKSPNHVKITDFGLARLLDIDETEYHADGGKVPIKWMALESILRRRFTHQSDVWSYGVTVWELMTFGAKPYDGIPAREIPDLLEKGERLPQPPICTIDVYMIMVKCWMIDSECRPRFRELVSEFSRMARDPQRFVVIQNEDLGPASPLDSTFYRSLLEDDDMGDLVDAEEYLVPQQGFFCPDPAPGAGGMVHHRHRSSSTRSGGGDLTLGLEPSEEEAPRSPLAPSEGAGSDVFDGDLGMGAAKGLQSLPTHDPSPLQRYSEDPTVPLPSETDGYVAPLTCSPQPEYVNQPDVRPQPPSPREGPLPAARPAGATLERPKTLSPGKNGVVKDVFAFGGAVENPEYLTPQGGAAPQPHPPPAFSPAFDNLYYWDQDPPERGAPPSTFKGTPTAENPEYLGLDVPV
Chain of Ba/F3 EGFR D770_N771insSVD cells (P00533 with tags, fused parts or gaps DUP768-770): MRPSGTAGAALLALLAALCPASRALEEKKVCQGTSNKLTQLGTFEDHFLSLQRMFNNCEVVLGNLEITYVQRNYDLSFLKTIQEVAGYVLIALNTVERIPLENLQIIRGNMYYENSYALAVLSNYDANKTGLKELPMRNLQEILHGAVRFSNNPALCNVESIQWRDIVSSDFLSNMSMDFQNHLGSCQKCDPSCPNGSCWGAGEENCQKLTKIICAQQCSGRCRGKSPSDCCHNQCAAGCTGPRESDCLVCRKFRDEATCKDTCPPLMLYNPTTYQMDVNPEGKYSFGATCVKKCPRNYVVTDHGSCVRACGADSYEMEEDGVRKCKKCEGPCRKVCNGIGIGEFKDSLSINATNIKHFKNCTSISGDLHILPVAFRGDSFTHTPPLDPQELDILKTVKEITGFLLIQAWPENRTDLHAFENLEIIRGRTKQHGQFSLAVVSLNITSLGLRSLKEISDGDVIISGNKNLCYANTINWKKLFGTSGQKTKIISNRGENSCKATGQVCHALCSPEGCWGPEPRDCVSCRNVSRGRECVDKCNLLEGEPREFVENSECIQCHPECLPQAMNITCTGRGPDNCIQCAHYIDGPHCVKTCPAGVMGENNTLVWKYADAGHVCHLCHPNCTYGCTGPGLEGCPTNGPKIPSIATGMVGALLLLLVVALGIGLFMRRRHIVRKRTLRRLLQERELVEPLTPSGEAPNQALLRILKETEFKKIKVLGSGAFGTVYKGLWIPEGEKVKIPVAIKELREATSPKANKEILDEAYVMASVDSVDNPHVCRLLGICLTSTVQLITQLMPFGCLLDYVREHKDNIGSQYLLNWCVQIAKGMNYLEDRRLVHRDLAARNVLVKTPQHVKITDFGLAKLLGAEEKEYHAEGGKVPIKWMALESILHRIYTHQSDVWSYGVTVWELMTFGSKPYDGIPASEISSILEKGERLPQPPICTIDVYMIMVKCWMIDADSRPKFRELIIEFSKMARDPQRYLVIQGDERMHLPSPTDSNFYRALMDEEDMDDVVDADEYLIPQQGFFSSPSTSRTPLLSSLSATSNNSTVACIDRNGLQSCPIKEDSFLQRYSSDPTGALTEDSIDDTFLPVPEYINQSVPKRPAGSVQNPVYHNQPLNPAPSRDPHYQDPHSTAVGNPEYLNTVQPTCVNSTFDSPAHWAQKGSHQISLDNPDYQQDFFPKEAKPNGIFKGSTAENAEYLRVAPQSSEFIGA

| IC50 [1] [nM] | IC50 [2] [nM] | GI50 [3] [nM] | SMILES | T/C (%) ([4]; QD×14, PO, day 14) | T/C (%) ([4]; QD×15, PO, day 15) | T/C (%) ([4]; QD×11, PO, day 11) |
| --- | --- | --- | --- | --- | --- | --- |
| < 10 | 5 to 10 | 10 to 100 | COc1c(NC(=O)/C=C/[C@H]2CCCN2C)ccc2ncnc(Nc3ccc(OCc4ccccn4)c(Cl)c3)c12 [Example 4, (R,E)-N-(4-((3-chloro-4-(pyridin-2-ylmethoxy)phenyl)amino)-5-methoxyquinazolin-6-yl)-3-(1-methylpyrrolidin-2-yl)acrylamide] | 2.6 | – | – |
| < 10 | – | 10 to 100 | COCCCOc1c(NC(=O)/C=C/[C@H]2CCCN2C)ccc2ncnc(Nc3ccc(OCc4ccccn4)c(Cl)c3)c12 [Example 9, (R,E)-N-(4-((3-chloro-4-(pyridin-2-ylmethoxy)phenyl)amino)-5-(3-methoxypropoxy)quinazolin-6-yl)-3-(1-methylpyrrolidin-2-yl)acrylamide] | – | 3.85 | – |
| < 10 | – | 10 to 100 | CCN1CCC[C@@H]1/C=C/C(=O)Nc1ccc2ncnc(Nc3ccc(OCc4ccccn4)c(Cl)c3)c2c1OC [Example 29, (R,E)-N-(4-((3-chloro-4-(pyridin-2-ylmethoxy)phenyl)amino)-5-methoxyquinazolin-6-yl)-3-(1-ethylpyrrolidin-2-yl)acrylamide] | – | – | 18.7 |
